One test deals with T1, B1R receptor of the rat (Rattus norvegicus, UniProt P97583).
T1 construct: host or cells: CHO K1 cells (Chinese hamster ovary), stably transfected
T1 sequence (P97583 1-337): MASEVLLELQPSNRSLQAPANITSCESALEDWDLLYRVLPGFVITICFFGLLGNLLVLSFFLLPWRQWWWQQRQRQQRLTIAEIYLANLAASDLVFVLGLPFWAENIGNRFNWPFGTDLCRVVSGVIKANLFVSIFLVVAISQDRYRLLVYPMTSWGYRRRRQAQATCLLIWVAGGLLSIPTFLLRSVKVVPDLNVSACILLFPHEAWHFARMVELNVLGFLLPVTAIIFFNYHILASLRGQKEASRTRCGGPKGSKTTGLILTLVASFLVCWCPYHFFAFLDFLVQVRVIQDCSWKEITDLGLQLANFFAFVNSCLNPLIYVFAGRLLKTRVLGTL
Kind of test: Functional study on the bradykinin receptor 1 (B1R), FLIPR Ca2+ assay, rB1R cells. In kind it is cell-based. The following applies: agonist Des-Arg9-bradykinin 100 nM, % inhibition compared with the maximum achievable inhibition; for inhibition at 10 µM: CHO-K1, test substance 10 μM, read-out: B1R Antagonism, rat [10 μM] % Inhibition. In short, it runs like this: (§1)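 Cells were dye-loaded 60 min at 37 °C, equilibrated 20 min at room temperature, then given 10 μM compound. Ten minutes later the species-matched agonist was added (0.5 nM Lys-Des-Arg9-bradykinin, human; 100 nM Des-Arg9-bradykinin, rat) and Ca2+ influx suppression expressed as % of maximum inhibition.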

The next test has as its target T2, human B1R receptor (Homo sapiens, UniProt P46663).
T2 construct: host or cells: CHO K1 cells (Chinese hamster ovary), stably transfected
T2 sequence (P46663 1-353): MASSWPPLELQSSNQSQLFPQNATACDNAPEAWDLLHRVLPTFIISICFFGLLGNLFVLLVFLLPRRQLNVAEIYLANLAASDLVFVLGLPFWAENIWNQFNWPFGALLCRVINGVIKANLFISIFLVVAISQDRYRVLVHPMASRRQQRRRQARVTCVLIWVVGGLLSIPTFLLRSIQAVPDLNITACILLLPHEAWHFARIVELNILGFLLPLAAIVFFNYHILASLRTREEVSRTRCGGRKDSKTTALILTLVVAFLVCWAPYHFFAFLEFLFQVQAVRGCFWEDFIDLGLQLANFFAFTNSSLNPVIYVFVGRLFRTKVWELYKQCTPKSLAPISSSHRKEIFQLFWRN
Nature of the test: Functional study on the bradykinin receptor 1 (B1R), FLIPR Ca2+ assay, hB1R cells. The following applies: agonist Lys-Des-Arg9-bradykinin 0.5 nM, % inhibition compared with the maximum achievable inhibition; for inhibition at 10 µM: CHO-K1, test substance 10 μM, read-out: B1R Antagonism, human [10 μM] % Inhibition. In kind it is cell-based. In short, it runs like this:
as §1

For orientation: inhibition means the change of the read-out against control, counted positive when it falls.

Counter-ions that a name gives are not always drawn.

For the compound `O=C(COCC1CCCCN1S(=O)(=O)c1cccc(Br)c1)N1CCN(c2ccncc2)CC1` (stereo not drawn) [Example 122, 2-((1-(3-bromophenylsulfonyl)piperidin-2-yl)methoxy)-1-(4-(pyridin-4-yl)piperazin-1-yl)ethanone], the inhibition at 10 µM was 13% at B1R receptor of the rat and 12.1% at human B1R receptor.
As for `CN1CCC(N2CCN(C(=O)COCC3CCCCN3S(=O)(=O)c3ccc(Br)cc3)CC2)CC1` (stereo not drawn) [Example 123, 2-((1-(4-bromophenylsulfonyl)piperidin-2-yl)methoxy)-1-(4-(1-methylpiperidin-4-yl)piperazin-1-yl)ethanone], the figures for the inhibition at 10 µM on B1R receptor of the rat and at human B1R receptor were 79.9% and 43.9%, respectively.
As for `O=C(COCC1CCCCN1S(=O)(=O)c1cccc(Br)c1)N1CCC(CCN2CCCC2)CC1` (stereo not drawn) [Example 124, 2-((1-(3-bromophenylsulfonyl)piperidin-2-yl)methoxy)-1-(4-(2-(pyrrolidin-1-yl)ethyl)piperidin-1-yl)ethanone], the inhibition at 10 µM at B1R receptor of the rat was 63.2%; on human B1R receptor it was 76.3%.
The corresponding values for `O=C(COCC1CCCCN1S(=O)(=O)c1ccc(Br)cc1)N1CCC(CCN2CCCC2)CC1` (stereo not drawn) [Example 125, 2-((1-(4-bromophenylsulfonyl)piperidin-2-yl)methoxy)-1-(4-(2-(pyrrolidin-1-yl)ethyl)piperidin-1-yl)ethanone] are 95.4% and 50.6%.
The corresponding values for `O=C(COCC1CCCCN1S(=O)(=O)c1ccc(Br)cc1)N1CCN(c2ccncc2)CC1` (stereo not drawn) [Example 126, 2-((1-(4-bromophenylsulfonyl)piperidin-2-yl)methoxy)-1-(4-(pyridin-4-yl)piperazin-1-yl)ethanone] are 81.1% and 46.4%.
As to `COc1cc(C)c(S(=O)(=O)N2Cc3ccccc3C[C@H]2COCC(=O)N2CCN(C3CCN(C)CC3)CC2)c(C)c1` [Example 127, (S)-2-((2-(4-methoxy-2,6-dimethylphenylsulfonyl)-1,2,3,4-tetrahydroisoquinolin-3-yl)methoxy)-1-(4-(1-methylpiperidin-4-yl)piperazin-1-yl)ethanone], the inhibition at 10 µM on B1R receptor of the rat is 93.7%; on human B1R receptor it was 102%.
Taken in the same sequence, the figures for `Cc1nn(C)c(Cl)c1S(=O)(=O)N1CCCCC1COCC(=O)N1CCN(C2CCN(C)CC2)CC1` (stereo not drawn) [Example 128, 2-((1-(5-chloro-1,3-dimethyl-1H-pyrazol-4-ylsulfonyl)piperidin-2-yl)methoxy)-1-(4-(1-methylpiperidin-4-yl)piperazin-1-yl)ethanone] were 94.5% and 90.8%.
As for `CN1CCC(N2CCN(C(=O)COCC3CCCCN3S(=O)(=O)c3c(Cl)nc4sccn34)CC2)CC1` (stereo not drawn) [Example 129, 2-((1-(6-chloroimidazo[2,1-b]thiazol-5-ylsulfonyl)piperidin-2-yl)methoxy)-1-(4-(1-methylpiperidin-4-yl)piperazin-1-yl)ethanone], the results for the inhibition at 10 µM at B1R receptor of the rat and on human B1R receptor were 31.2% and 0.03%, respectively.
On to `COc1cc(C)c(S(=O)(=O)N2CCCCC2COCC(=O)N2CCC(N3CCC(F)CC3)CC2)c(C)c1` (stereo not drawn) [Example 130, 1-(4-fluoro-1,4′-bipiperidin-1′-yl)-2-((1-(4-methoxy-2,6-dimethylphenylsulfonyl)piperidin-2-yl)methoxy)ethanone], for which the figures for the inhibition at 10 µM at B1R receptor of the rat and on human B1R receptor were 96.3% and 103%, respectively.
The corresponding values for `Cc1ccccc1Oc1cccc(S(=O)(=O)N2CCCCC2COCC(=O)N2CCN(C3CCN(C)CC3)CC2)c1` (stereo not drawn) [Example 131, 1-(4-(1-methylpiperidin-4-yl)piperazin-1-yl)-2-((1-(3-(o-tolyloxy)phenylsulfonyl)piperidin-2-yl)methoxy)ethanone] are 95.4% and 82.1%.
Taken in the same sequence, the figures for `CN1CCC(N2CCN(C(=O)COC[C@@H]3Cc4ccccc4CN3S(=O)(=O)c3ccc(Cl)cc3Cl)CC2)CC1` [Example 133, (S)-2-((2-(2,4-dichlorophenylsulfonyl)-1,2,3,4-tetrahydroisoquinolin-3-yl)methoxy)-1-(4-(1-methylpiperidin-4-yl)piperazin-1-yl)ethanone] were 98.1% and 103%.
Taken in the same sequence, the figures for `COc1cc(C)c(S(=O)(=O)N2CCCCC2COCC(=O)N2CCN(C3CCC(C(F)(F)F)CC3)CC2)c(C)c1` (stereo not drawn) [Example 134, 2-((1-(4-methoxy-2,6-dimethylphenylsulfonyl)piperidin-2-yl)methoxy)-1-(4-(4-(trifluoromethyl)cyclohexyl)piperazin-1-yl)ethanone] were 98.2% and 102%.
On to `COc1cc(C)c(S(=O)(=O)N2CC[C@H]2COCC(=O)N2CCN(C3CCN(C)CC3)CC2)c(C)c1` [Example 135, (S)-2-((1-(4-methoxy-2,6-dimethylphenylsulfonyl)azetidin-2-yl)methoxy)-1-(4-(1-methylpiperidin-4-yl)piperazin-1-yl)ethanone], for which the inhibition at 10 µM on B1R receptor of the rat was found to be 98.3%; at human B1R receptor, 103%.
On to `COc1cc(C)c(S(=O)(=O)N2CCCCC2COCC(=O)N2CCC(NCC(c3cccnc3)N3CCOCC3)CC2)c(C)c1` (stereo not drawn) [Example 136, 2-((1-(4-methoxy-2,6-dimethylphenylsulfonyl)piperidin-2-yl)methoxy)-1-(4-(2-morpholin-2-(pyridin-3-yl)ethylamino)piperidin-1-yl)ethanone], for which the “B1R Antagonism, rat [10 μM] % Inhibition” value at B1R receptor of the rat (test substance 10 μM, rB1R CHO K1 cells) is 98.94%. Moreover, the “B1R Antagonism, human [10 μM] % Inhibition” value at human B1R receptor (test substance 10 μM, hB1R CHO K1 cells) came to 103.97%.
Turning to `CN1CCC(N2CCN(C(=O)COCC3CCCCN3S(=O)(=O)c3csc4ccccc34)CC2)CC1` (stereo not drawn) [Example 137, 2-((1-(benzo[b]thiophen-3-ylsulfonyl)piperidin-2-yl)methoxy)-1-(4-(1-methylpiperidin-4-yl)piperazin-1-yl)ethanone], the inhibition at 10 µM at B1R receptor of the rat was found to be 98.8%; at human B1R receptor, 102%.
As to `CN1CCC(N2CCN(C(=O)COCC3CCCCN3S(=O)(=O)c3ccc(C(F)(F)F)cc3Cl)CC2)CC1` (stereo not drawn) [Example 138, 2-((1-(2-chloro-4-(trifluoromethyl)phenylsulfonyl)piperidin-2-yl)methoxy)-1-(4-(1-methylpiperidin-4-yl)piperazin-1-yl)ethanone], the values for the inhibition at 10 µM at B1R receptor of the rat and at human B1R receptor were 98.5% and 104%, respectively.
The corresponding values for `CN1CCC(N2CCN(C(=O)COCC3CCCCN3S(=O)(=O)c3ccccc3Cl)CC2)CC1` (stereo not drawn) [Example 139, 2-((1-(2-chlorophenylsulfonyl)piperidin-2-yl)methoxy)-1-(4-(1-methylpiperidin-4-yl)piperazin-1-yl)ethanone dihydrochloride] are 98.8% and 99.9%.
The corresponding values for `COc1cc(C)c(S(=O)(=O)N2CCC[C@@H]2COCC(=O)N2CCN(C3CCN(C)CC3)CC2)c(C)c1C` [Example 140, (R)-2-((1-(4-methoxy-2,3,6-trimethylphenylsulfonyl)pyrrolidin-2-yl)methoxy)-1-(4-(1-methylpiperidin-4-yl)piperazin-1-yl)ethanone dihydrochloride] are 80.7% and 100%.
The corresponding values for `CN1CCC(N2CCN(C(=O)COCC3CCCCN3S(=O)(=O)c3c(Cl)cccc3Cl)CC2)CC1` (stereo not drawn) [Example 141, 2-((1-(2,6-dichlorophenylsulfonyl)piperidin-2-yl)methoxy)-1-(4-(1-methylpiperidin-4-yl)piperazin-1-yl)ethanone dihydrochloride] are 101% and 101%.
Consider `COc1ccc(S(=O)(=O)N2Cc3ccccc3C[C@H]2COCC(=O)N2CCN(C3CCN(C)CC3)CC2)cc1` [Example 142, (S)-2-((2-(4-methoxyphenylsulfonyl)-1,2,3,4-tetrahydroisoquinolin-3-yl)methoxy)-1-(4-(1-methylpiperidin-4-yl)piperazin-1-yl)ethanone], for which the results for the inhibition at 10 µM on B1R receptor of the rat and on human B1R receptor were 63% and 89.9%, respectively.
Taken in the same sequence, the figures for `COc1cc(C)c(S(=O)(=O)N2CCCCC2COCC(=O)NCCC2CCN(c3ccncc3)CC2)c(C)c1` (stereo not drawn) [Example 143, 2-((1-(4-methoxy-2,6-dimethylphenylsulfonyl)piperidin-2-yl)methoxy)-N-(2-(1-(pyridin-4-yl)piperidin-4-yl)ethyl)acetamide] were 99.3% and 99.9%.

For the origin of these results see US8435978B2, “Substituted sulfonamide compounds” (Gruenenthal GmbH, priority 2006, dated 2013).
